# Data: the Kinase Knowledgebase extract (Sharma et al. 2016)
# Target: CDK2 (human) (UniProt P24941)
# Assay: Enzyme Assay
row,IC50 [µM],Structure (SMILES)
1,< 5,COc1ncccc1-c1ccnc(Nc2cccc(C(N)=O)c2)n1
2,< 5,Nc1cnccc1-c1ccnc(Nc2cccc(Cl)c2)n1
3,< 5,CNS(=O)(=O)c1cccc(Nc2nccc(-c3cccnc3OC)n2)c1
4,< 5,CS(=O)(=O)NCCCNc1ncccc1-c1ccnc(Nc2cccc(Cl)c2)n1
5,< 5,CC(=O)NCCCNc1nccc(-c2ccnc(Nc3cccc([N+](=O)[O-])c3)n2)c1C
6,< 5,CC(=O)NCCCNc1ncccc1-c1ccnc(Nc2cccc(S(N)(=O)=O)c2)n1
7,< 5,CC(=O)NCCCNc1cc(-c2nc(Nc3cccc(Cl)c3)ncc2C)ccn1
8,< 5,COc1ccc(-c2ccnc(Nc3cccc(S(C)(=O)=O)c3)n2)c(OC)n1
9,< 5,CC(C)NCCCNc1ncccc1-c1ccnc(Nc2cccc(Cl)c2)n1
10,< 5,COc1ncccc1-c1ccnc(Nc2cccc(-c3nncn3C)c2)n1
11,< 5,COc1ncccc1-c1ccnc(Nc2cccc(S(N)(=O)=O)c2)n1
12,< 5,CCNS(=O)(=O)c1cccc(Nc2nccc(-c3cccnc3OC)n2)c1
13,< 5,Cc1c(-c2ccnc(Nc3cccc(Cl)c3)n2)ccnc1NCCCN1CCCC1=O
14,< 5,Cc1c(-c2ccnc(Nc3cccc(Cl)c3)n2)ccnc1NCc1ccccc1
15,< 5,NS(=O)(=O)c1cccc(Nc2nccc(-c3cccnc3NCCCn3ccnc3)n2)c1
16,< 5,CN(C)CCCNc1ncccc1-c1ccnc(Nc2cccc(Cl)c2)n1
17,< 5,COc1ncccc1-c1ccnc(Nc2cccc(NC(C)=O)c2)n1
18,< 5,COc1ncccc1-c1ccnc(Nc2cccc(C3CCNCC3)c2)n1
19,< 5,COc1ncccc1-c1ccnc(Nc2cccc(C#N)c2)n1
20,< 5,Cc1cnc(Nc2cccc(Cl)c2)nc1-c1cccnc1NCCCN
21,< 5,CNCCNc1nccc(-c2ccnc(Nc3cccc(Cl)c3)n2)c1C

row,IC50 [µM],Structure (SMILES)
1,< 5,Cc1nccn1CCCNc1ncccc1-c1ccnc(Nc2cccc(Cl)c2)n1
2,< 5,NCCCNc1ncccc1-c1ccnc(Nc2cccc(S(N)(=O)=O)c2)n1
3,< 5,COc1ncccc1-c1ccnc(Nc2cccc(S(C)(=O)=O)c2)n1
4,< 5,CC(=O)NCCCNc1nccc(-c2ccnc(Nc3cccc(Cl)c3)n2)c1C
5,< 5,O=C1CCCN1CCCNc1ncccc1-c1ccnc(Nc2cccc(Cl)c2)n1
6,< 5,COc1ncccc1-c1ccnc(Nc2cccc(S(=O)(=O)N3CCCCC3)c2)n1
7,< 5,NCCCNc1ncccc1-c1ccnc(Nc2cccc(Cl)c2)n1
8,< 5,CCCCNS(=O)(=O)c1cccc(Nc2nccc(-c3cccnc3OC)n2)c1
9,< 5,CC(=O)NCCNc1ncccc1-c1ccnc(Nc2cccc(Cl)c2)n1
10,< 5,Clc1cccc(Nc2nccc(-c3cccnc3NCCCn3ccnc3)n2)c1
11,< 5,NCCCCNc1ncccc1-c1ccnc(Nc2cccc(Cl)c2)n1
12,< 5,Cc1cnccc1-c1ccnc(Nc2cccc(Cl)c2)n1
13,< 5,COc1cnccc1-c1ccnc(Nc2cccc(Cl)c2)n1
14,< 5,COc1cnccc1-c1ccnc(Nc2cccc(S(N)(=O)=O)c2)n1
15,< 5,Clc1cccc(Nc2nccc(-c3cccnc3NCCCN3CCOCC3)n2)c1
16,< 5,COCCCNc1ncccc1-c1ccnc(Nc2cccc(Cl)c2)n1
17,< 5,Clc1cccc(Nc2nccc(-c3cccnc3NCCc3c[nH]cn3)n2)c1
18,< 5,CCNC(=O)c1cccc(Nc2nccc(-c3cccnc3OC)n2)c1
19,< 5,CC(C)(CN)CNc1ncccc1-c1ccnc(Nc2cccc(Cl)c2)n1
20,< 5,CC(=O)NCC(C)(C)CNc1ncccc1-c1ccnc(Nc2cccc(Cl)c2)n1
21,< 5,CC(=O)NCCCNc1ncccc1-c1ccnc(Nc2cccc(Cl)c2)n1

row,IC50 [µM],Structure (SMILES)
1,< 5,NCCNc1ncccc1-c1ccnc(Nc2cccc(Cl)c2)n1
2,< 5,COc1ncccc1-c1ccnc(Nc2cccc(-c3cnco3)c2)n1
3,< 5,COc1ncccc1-c1ccnc(Nc2cccc(S(=O)(=O)NCCO)c2)n1
4,< 5,CCOC(=O)c1cccc(Nc2nccc(-c3cccnc3OC)n2)c1
5,< 5,COc1cnccc1-c1ccnc(Nc2cccc(S(C)(=O)=O)c2)n1
6,< 5,COc1ncccc1-c1ccnc(Nc2ccc3cn[nH]c3c2)n1
7,< 5,CS(=O)(=O)c1cccc(Nc2nccc(-c3cccnc3NCCCN)n2)c1
8,< 5,N#Cc1cccc(Nc2nccc(-c3cccnc3NCCCN)n2)c1
9,< 5,CC(=O)NCCCNc1cc(-c2ccnc(Nc3cccc(Cl)c3)n2)cc(C)n1
10,< 5,CC(=O)NCCCCNc1ncccc1-c1ccnc(Nc2cccc(Cl)c2)n1
11,< 5,OCCCNc1ncccc1-c1ccnc(Nc2cccc(Cl)c2)n1
12,< 5,Cc1c(-c2ccnc(Nc3cccc(Cl)c3)n2)ccnc1NCCCN1CCOCC1
13,< 5,CC(=O)NCCCNc1ncccc1-c1ccnc(Nc2cccc(C#N)c2)n1
14,< 5,Cc1c(-c2ccnc(Nc3cccc(Cl)c3)n2)ccnc1NCCCn1ccnc1
15,< 5,COc1ncccc1-c1ccnc(Nc2cccc(C(=O)OC(C)(C)C)c2)n1
16,< 5,COc1ncccc1-c1ccnc(Nc2cccc(C(=O)O)c2)n1
17,< 5,COCCCNc1nccc(-c2ccnc(Nc3cccc(Cl)c3)n2)c1C
18,< 5,COc1ncccc1-c1ccnc(Nc2ccc(N3CCN(C)CC3)cc2)n1
19,< 5,CC(=O)OCCCNc1ncccc1-c1ccnc(Nc2cccc(Cl)c2)n1
